Experimental data from patent publication US20230146923A1, “COMPOSITIONS AND METHODS FOR INHIBITION AND TARGETING OF P97” (California Institute of Technology, priority 2021, published 2023).
Read-outs that look alike come from different tables or passages of the source.

Columns and labels:
cyclin D1 [1] = assay: Cyclin D1 level and degradation (co-treatment, CHX chase); type: cell-based; details: HCT116, 6 hours; MG132 1 μM, CB-5083 2 μM, Baf A1 10 μM
Protocol: FIGS. 12A-12C depicts Western blots detecting the effects of p97 inhibitors and MG132 on cell cycle proteins in HT29 and HCT116 cells. […] Then, 50 μM of CHX was added and cells were collected at 0 h, 0.5 h, and 1 h. FIG. 12C depicts half-life of cyclin D1 in HCT116 cells. HCT116 cells were pre-treated with 5 μM of CB-5083 or DMSO for 30 minutes before adding 50 μM of CHX, and cells were collected at 0, 10, 20, 30 min (n=3), * indicates p<0.05 according to unpaired t-test.
(§1) The concentration of MG132, CB-5083 and Baf A1 was 1 μM, 2 μM and 10 μM, respectively. […] FIGS. 13D-13E depict the half-life of Securin in HCT116 cells. HCT116 cells were treated with 1 μM of MG132, 2 μM of CB-5083, 1 μM of MG132 plus 2 μM of CB-5083 or DMSO. […] Cells were pretreated with […] for 1 h. […] For FIGS. 13B-13G, D, B, M, C and N represents DMSO, Baf A1, MG132, CB-5083 and NMS-873, respectively. Data are shown as mean±SD. Statistical analysis was performed using one-way ANOVA.
Cells were co-treated with CB-5083 and either the proteasome inhibitor MG132 or the autophagy inhibitor Bafilomycin A1 (Baf A1).

HCT116 cells [2] = assay: Temporal label-free (LFQ) proteomics of HCT116 cells treated with p97 inhibitors; type: cell-based; details: 4 μM UPCDC-30245, 2 μM CB-5083, 4 μM NMS-873
Protocol: This percentage was calculated by dividing the number of overlapping proteins by the sum of all DE proteins identified by p97 KD and/or inhibitor treatment. HCT116 cells were treated with 4 μM UPCDC-30245, 2 μM CB-5083 or 4 μM of NMS-874 for the indicated time points, n=2.
To explore the temporal proteomic profiles of p97 inhibition, HCT116 cells were treated with DMSO, and p97 inhibitors (CB-5083, NMS-873 or UPCDC-30245) for 2 h, 6 h, 10 h, 18 h, or 24 h in duplicate. […] To compare the proteomic profile of p97 shRNA KD to that of different p97 inhibitors, DE proteins identified through p97 KD were compared with those identified under different inhibitor treatments (p<0.05) at each time point. […] To reveal the cellular effects common to both p97 KD and p97 inhibitors, overlapping DE proteins across different timepoints for each inhibitor treatment were combined.

cyclin D1 [3] = details: Parisi et al. [71]; cited from earlier work
Securin [4] = assay: Securin degradation (CHX chase) in HCT116 cells; type: cell-based; details: HCT116, pretreated with MG132 for 1 h, then 2 μM CB-5083 with 50 μM CHX
Protocol: as §1

HCT116 cells [5] = details: HCT116, 6 h treatment, 2 μM CB-5083
Protocol: as §1

Securin [6] = details: HT29, pretreated with MG132 for 1 h, then 2 μM CB-5083 with 50 μM CHX
Protocol: as §1

HCT116 cells [7] = assay: Cell cycle analysis (DNA content); type: cell-based; details: HCT116, 24 h
Protocol: FIG. 7A depicts cell cycle analysis of HCT116 cells after 24 h of treatments with DMSO, 1 μM of MG132 (MG) or 2 μM of CB-5083. […] Data were from TMT labeling proteomics. M, C and N indicates MG132, CB-5083 and NMS-873 treatment, respectively. […] HCT116 cells were treated for 24 h with DMSO, 1 μM of MG132 (MG), 2 μM of CB-5083 (CB) or 4 μM of NMS-873 (NMS), n=3.

[8] = system: cancer cell proliferation; details: ref [22]; cited from earlier work
HCT116 tumor cells = details: mouse xenograft models implanted with HCT116 tumor cells, ref [22]; cited from earlier work
HCT116 cells [9] = assay: TMT labeling proteomics of HCT116 cells treated with MG132, CB-5083 or NMS-873; type: cell-based; details: for Log2 FC Baculoviral IAP repeat-containing protein 5 (BIRC5) / Log2 FC Cell division cycle protein 20 homolog (CDC20) / Log2 FC F-box only protein 5 (FBXO5) / Log2 FC G1/S-specific cyclin-D1 (CCND1) / Log2 FC Geminin (GMNN) / Log2 FC M-phase inducer phosphatase 2 (CDC25B) / Log2 FC Mitotic checkpoint serine/threonine-protein kinase BUB1 (BUB1) / Log2 FC Myc proto-oncogene protein (MYC) / Log2 FC Origin recognition complex subunit 6 (ORC6) / Log2 FC Ribonucleoside-diphosphate reductase subunit M2 (RRM2) / Log2 FC Securin (PTTG1): compound vs DMSO; for Four XBP1 activated genes/proteins (DNAJB11, SRPR, SRPRB, SYVN1), Log2FC: HCT116, 24 h of treatment, p<0.05
Protocol: HCT116 cells were treated with 1 μM MG132, 2 μM CB-5083 or 4 μM of NMS-874 for 6 h or 24 h, n=2. […] M, C and N represents MG132, CB-5083 and NMS-873, respectively.
As a step toward understanding the differential effects of inhibiting p97 and the proteasome in cancer treatment, the effect of inhibiting p97 was compared to proteasome inhibition using tandem mass tag (TMT) 16-plexed labelling. This technique allowed for capture of alterations in the proteome after exposure to MG132 (proteasome inhibitor) and p97 inhibitors (CB-5083 and NMS-873). […] Samples were pooled together, fractionated into 8 fractions using high pH reverse chromatography, and analyzed using the highly accurate RTS-SPS-MS3 method.

SMILES	UPR proteins and those linked to protein processing in the ER (HCT116 cells [2])	Log2 FC Baculoviral IAP repeat-containing protein 5 (BIRC5) (HCT116 cells [9]; HCT116, 6 h treatment)	Log2 FC Cell division cycle protein 20 homolog (CDC20) (HCT116 cells [9]; HCT116, 6 h treatment)	Log2 FC F-box only protein 5 (FBXO5) (HCT116 cells [9]; HCT116, 6 h treatment)	Log2 FC G1/S-specific cyclin-D1 (CCND1) (HCT116 cells [9]; HCT116, 6 h treatment)	Log2 FC Geminin (GMNN) (HCT116 cells [9]; HCT116, 6 h treatment)	Log2 FC M-phase inducer phosphatase 2 (CDC25B) (HCT116 cells [9]; HCT116, 6 h treatment)	Log2 FC Mitotic checkpoint serine/threonine-protein kinase BUB1 (BUB1) (HCT116 cells [9]; HCT116, 6 h treatment)	Log2 FC Myc proto-oncogene protein (MYC) (HCT116 cells [9]; HCT116, 6 h treatment)	Log2 FC Origin recognition complex subunit 6 (ORC6) (HCT116 cells [9]; HCT116, 6 h treatment)	Log2 FC Ribonucleoside-diphosphate reductase subunit M2 (RRM2) (HCT116 cells [9]; HCT116, 6 h treatment)	Log2 FC Securin (PTTG1) (HCT116 cells [9]; HCT116, 6 h treatment)	Four XBP1 activated genes/proteins (DNAJB11, SRPR, SRPRB, SYVN1), Log2FC (HCT116 cells [9])	Log2 FC Baculoviral IAP repeat-containing protein 5 (BIRC5) (HCT116 cells [9]; HCT116, 24 h treatment)	Log2 FC Cell division cycle protein 20 homolog (CDC20) (HCT116 cells [9]; HCT116, 24 h treatment)	Log2 FC F-box only protein 5 (FBXO5) (HCT116 cells [9]; HCT116, 24 h treatment)	Log2 FC G1/S-specific cyclin-D1 (CCND1) (HCT116 cells [9]; HCT116, 24 h treatment)	Log2 FC Geminin (GMNN) (HCT116 cells [9]; HCT116, 24 h treatment)	Log2 FC M-phase inducer phosphatase 2 (CDC25B) (HCT116 cells [9]; HCT116, 24 h treatment)	Log2 FC Mitotic checkpoint serine/threonine-protein kinase BUB1 (BUB1) (HCT116 cells [9]; HCT116, 24 h treatment)	further results
CO/C1=C\C(C)=C\[C@@H](C)[C@@H](O)[C@@H](C)C/C(C)=C/C=C/[C@H](OC)[C@@H]([C@@H](C)[C@@H](O)[C@H](C)[C@@]2(O)C[C@@H](O)[C@H](C)[C@@H](C(C)C)O2)OC1=O [Baf A1, Bafilomycin A1]																					Effect on CB-5083 mediated cyclin D1 downregulation (co-treatment) (cyclin D1 [1]): no effect on cyclin D1 levels
CC(C)N1CCN(CCNC2CCN(c3cccc(-c4cc5cc(F)ccc5[nH]4)c3)CC2)CC1 [UPCDC-30245, 1-(3-(5-Fluoro-1H-indol-2-yl)phenyl)-N-(2-(4-isopropylpiperazin-1-yl)ethyl)piperidin-4-amine]	not																				
c1ccc(CNc2nc(NCc3ccccc3)c3ccccc3n2)cc1 [DBeQ, N^2,N^4-Bis(phenylmethyl)-2,4-quinazolinediamine]																					Cyclin D1 degradation (cyclin D1 [3]): promotes cyclin D1 degradation
Cc1cc2c(C(N)=O)cccc2n1-c1nc2c(c(NCc3ccccc3)n1)COCC2 [CB-5083]	upregulated	−0.5	−0.4	−0.8	−1.4	−0.4	−1.1	−0.3	−0.5	−0.4	−0.2	−0.9	significantly upregulated	−0.8	−1.5	−1.0	−2.0	−1.1	−1.6	−1.1	Degradation of Securin after MG132 pretreatment (Securin [4]): slightly accelerated the degradation of Securin; RNA level of CDC20 (HCT116 cells [5]): downregulated; Degradation of Securin after MG132 pretreatment (Securin [6]): slightly accelerated the degradation of Securin; Potency in reducing G0/G1 and increasing G2/M distribution compared to MG132 (HCT116 cells [7]): less potent; Distribution of cells in the G0/G1 phase (HCT116 cells [7]; 1 μM MG132, 2 μM CB-5083): reduced distribution in the G0/G1 phase; Cancer cell proliferation [8]: strongly inhibited cancer cell proliferation; Tumor growth (HCT116 tumor cells): efficacious in inhibiting tumor growth; Log2 FC Myc proto-oncogene protein (MYC) (HCT116 cells [9]; HCT116, 24 h treatment): −0.7; Log2 FC Origin recognition complex subunit 6 (ORC6) (HCT116 cells [9]; HCT116, 24 h treatment): −0.3; Log2 FC Ribonucleoside-diphosphate reductase subunit M2 (RRM2) (HCT116 cells [9]; HCT116, 24 h treatment): −1.1; Log2 FC Securin (PTTG1) (HCT116 cells [9]; HCT116, 24 h treatment): −1.9
Cc1cc(OCc2nnc(SC3CCCC3)n2-c2cccnc2)ccc1-c1ccc(S(C)(=O)=O)cc1 [NMS-873, 3-[3-cyclopentylsulfanyl-5-[[3-methyl-4-(4-methylsulfonylphenyl)phenoxy]methyl]-1,2,4-triazol-4-yl]pyridine]	upregulated	−0.5	−0.6	−1.1	−1.8	−0.6	−1.6	−0.4	−1.1	−0.5	−0.3	−1.2	significantly upregulated	−2.0	−2.8	−2.4	−3.2	−1.8	−2.2	−2.1	Log2 FC Myc proto-oncogene protein (MYC) (HCT116 cells [9]; HCT116, 24 h treatment): −1.1; Log2 FC Origin recognition complex subunit 6 (ORC6) (HCT116 cells [9]; HCT116, 24 h treatment): −0.6; Log2 FC Ribonucleoside-diphosphate reductase subunit M2 (RRM2) (HCT116 cells [9]; HCT116, 24 h treatment): −2.7; Log2 FC Securin (PTTG1) (HCT116 cells [9]; HCT116, 24 h treatment): −2.9
